# Reference: patent publication US11980594B2, “Composition and method for treating a drug-resistant cancer” (NOVELWISE PHARMACEUTICAL CORPORATION, priority 2021, dated 2024)
# Tests used:
# HCT116 cells [1] = experiment: Clonogenic (colony formation) assay, HCT116; format: cell-based; details: Homo sapiens, HCT-116, 336 h, 14 days, read-out: IC50 values of TMZ, clonogenic assay
# Method: (§1) For the anchorage-dependent growth assay, 1000 cells were resuspended in the medium and seeded in 6-well plates. […] After 14 days, the media were removed and the cells were washed and fixed with 4% paraformaldehyde for 30 min, and stained with 0.1% crystal violet for 20 min at 25° C. The intensity of crystal violet was quantified by the absorbance of 570 nm after dissolving the stained cells with dimethyl sulfoxide (DMSO). The results are expressed as the average colony±SE from three independent experiments.
# HT29 cells [2] = experiment: Clonogenic (colony formation) assay, HT29; format: cell-based; details: Homo sapiens, HT-29, 336 h, 14 days, read-out: IC50 values of TMZ, clonogenic assay
# Method: as §1
# HT29 cells [3] = experiment: Annexin V/PI flow cytometric analysis of apoptosis, HT29; format: cell-based, human; details: BMX, 48 hrs
# Method: (§2) Apoptosis induction in different doses of BMX (0-10 μM) in the presence or absence of TMZ (50 μM) was assayed by the detection of membrane externalization of phosphatidylserine with the with the CF®488A Annexin V and PI Apoptosis Kit (Fremont, Calif., USA) following the manufacturer's instructions. All samples were then immediately analyzed by flow cytometry.
# β-catenin = experiment: Western blot of β-catenin in GBM-R cells; format: cell-based, human; details: U87R and A172R cells; 10 μM BMX with or without 50 μM TMZ; 48 hrs; FIG. 3A
# Method: (§3) The cells were collected and lysed in RIPA lysis buffer (EMD Millipore Billerica, Mass., USA, 10×RIPA buffer) containing a protease inhibitor. Protein concentration was determined using a protein assay kit (Bio-Rad Laboratories, Hercules, Calif., USA). The SDS loading buffer was mixed with the protein samples. Proteins (20 μg/lane) were separated using 8%-12% SDS-PAGE and transferred to a PVDF membrane, which was blocked with 5% bovine serum albumin at room temperature for 1 hr in tris-buffered saline (TBS)-Tween 20 (0.5%; TBS-T), incubated with primary antibodies overnight at […], and then incubated with horseradish peroxidase (HRP)-conjugated secondary antibodies at room temperature for 1 hr. After washing thoroughly with TBS-T, the HRP signals were detected with a chemical HRP substrate. Signal of each target protein was visualized by incubation with an enhanced chemiluminescent reagent and exposure to X-ray film.
# c-Myc and cyclin D1 = experiment: Western blot of c-Myc and cyclin D1 in GBM-R cells; format: cell-based, human; details: 5 or 10 μM BMX with or without 50 μM TMZ, 48 hrs, FIG. 3B
# Method: as §3
# HCT116 cells [4] = experiment: Annexin V/PI flow cytometric analysis of apoptosis, HCT116; format: cell-based, human; details: BMX, 48 hrs
# Method: as §2
# RKO cells = experiment: Annexin V/PI flow cytometric analysis of apoptosis, RKO; format: cell-based, human; details: BMX, 48 hrs
# Method: as §2
# HDAC8 = HDAC8 mRNA (qRT-PCR) and protein (Western blot) expression in GBM and GBM-R cell lines; format: cell-based, human; details: four cell lines (U87MG, U87MG-R, A172, A172-R); BMX 0-10 μM; FIGS. 9A and 9B
# Method: The ABI Prism® 7700 Sequence Detection System (Applied Biosystems, Foster City, Calif., USA) was used for quantitative analysis of mRNA expression. The cells (2×10^5) were seeded in 6-well plates, and total RNA was extracted using Tissue Total RNA Mini Kit (Geneaid, Taipei, Taiwan). A 10-ng sample of total RNA was transcribed into cDNA by using a High-Capacity cDNA Reverse Transcription Kit (Applied Biosystems). Gene expression was quantified using Fast SYBR Green Master Mix (Applied Biosystems) following the procedures provided by the manufacturer, with 18s as the inner reference. All procedures were performed according to the manufacturer's protocols. The thermocycling conditions were as follows: 50° C. for 2 min, 95° C. for 10 min, and 40 cycles of 95° C. for 15 s and 60° C. for […]. Each sample was analyzed in triplicate. The threshold cycle (Ct) values were calculated using the StepOnePlus (Applied Biosystems) software. The relative expression of each mRNA was calculated using the 2-(ΔCt) method. […]
# The cells were collected and lysed in RIPA lysis buffer (EMD Millipore Billerica, Mass., USA, 10×RIPA buffer) containing a protease inhibitor. Protein concentration was determined using a protein assay kit (Bio-Rad Laboratories, Hercules, Calif., USA). […] After washing thoroughly with TBS-T, the HRP signals were detected with a chemical HRP substrate. […]
# [5] = statement from literature [22]; cited from earlier work
# A172-R cells = experiment: Flow cytometric analysis of the DNA cell cycle, A172-R; format: cell-based, human; details: 10 μM BMX alone, 48 hrs
# Method: (§4) For the DNA cell cycle, following treatment with different doses of BMX (0-10 μM) in the presence or absence of TMZ (50 μM) for 48 hrs, the cells were harvested through trypsinization, washed twice with phosphate-buffered saline, and fixed in methanol. The cells were then washed again, subjected to RNase A at a final concentration of 0.05 mg/mL (Sigma-Aldrich; Merck Millipore, Darmstadt, Germany), and incubated with 10 μg/mL propidium iodide (PI; Sigma-Aldrich; Merck Millipore) at 4° C. for 15 min in the dark. Cell cycle analysis was conducted using a fluorescence-activated cell sorting (FACS) flow cytometer (Attune NxT flow cytometer, Thermo Fisher Scientific).
# U87MG-R cells = experiment: Flow cytometric analysis of the DNA cell cycle, U87MG-R; format: cell-based, human; details: 10 μM BMX alone, 48 hrs
# Method: as §4
IC50 (HCT116 cells [1]),IC50 (HT29 cells [2]),SMILES,early apoptotic cells (HT29 cells [3]),protein levels of β-catenin (β-catenin),levels of proliferative markers c-Myc and cyclin D1 (c-Myc and cyclin D1),early apoptotic cells (HCT116 cells [4]),early apoptotic cells (RKO cells),HDAC8 mRNA and protein expression (HDAC8),toxicity [5],cells arrested in G0/G1 phase (A172-R cells),cells arrested in G0/G1 phase (U87MG-R cells)
138 ± 22.7 µM,359 ± 50.4 µM,"Cn1nnc2c(C(N)=O)ncn2c1=O [TMZ, Temozolomide, reference compound]",,,,,,,,,
,,"COc1ccc(COc2c(/C=C/C(=O)NO)ccc(OC)c2CC=C(C)C)cc1 [BMX, (E)-2-(4-Methoxybenzyloxy)-3-prenyl-4-methoxy-N-hydroxycinamide]",up to 23.78%,only slightly reduced these levels,could decrease their levels,≤ 49.34%,≤ 59.18%,inhibition of HDAC8 mRNA and protein expression,lowest toxicity,70.34%,77.95%
